Results: ChEMBL document CHEMBL1127980, “A convenient synthesis of 2-amino-2-oxazolines and their pharmacological evaluation at cloned human adrenergic receptors” (Bioorg Med Chem Lett, 1994)

What was measured:
[1] = molecular target: T1, Alpha-2B adrenergic receptor (Homo sapiens, UniProt P18089); assay: Agonistic activity towards human Alpha-2B adrenergic receptor was measured as ability to inhibit forskolin-stimulated synthesis of cyclic adenosine monophosphate; assay type: functional
T1 sequence (P18089 whole entry): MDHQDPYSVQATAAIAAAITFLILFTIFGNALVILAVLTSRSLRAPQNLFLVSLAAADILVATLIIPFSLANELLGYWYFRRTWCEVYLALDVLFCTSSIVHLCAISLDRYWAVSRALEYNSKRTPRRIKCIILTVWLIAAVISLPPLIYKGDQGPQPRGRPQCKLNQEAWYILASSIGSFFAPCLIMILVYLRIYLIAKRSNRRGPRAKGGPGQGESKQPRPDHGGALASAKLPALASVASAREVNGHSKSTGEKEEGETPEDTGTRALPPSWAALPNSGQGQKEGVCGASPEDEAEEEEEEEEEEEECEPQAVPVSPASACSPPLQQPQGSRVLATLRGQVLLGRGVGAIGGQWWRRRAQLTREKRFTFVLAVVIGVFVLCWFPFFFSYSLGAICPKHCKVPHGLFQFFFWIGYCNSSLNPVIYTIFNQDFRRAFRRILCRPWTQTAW

[2] = molecular target: T2, Alpha-2A adrenergic receptor (Homo sapiens, UniProt P08913); assay: Agonistic activity towards human Alpha-2A adrenergic receptor was measured as ability to inhibit forskolin-stimulated synthesis of cyclic adenosine monophosphate; assay type: functional
T2 sequence (P08913 whole entry): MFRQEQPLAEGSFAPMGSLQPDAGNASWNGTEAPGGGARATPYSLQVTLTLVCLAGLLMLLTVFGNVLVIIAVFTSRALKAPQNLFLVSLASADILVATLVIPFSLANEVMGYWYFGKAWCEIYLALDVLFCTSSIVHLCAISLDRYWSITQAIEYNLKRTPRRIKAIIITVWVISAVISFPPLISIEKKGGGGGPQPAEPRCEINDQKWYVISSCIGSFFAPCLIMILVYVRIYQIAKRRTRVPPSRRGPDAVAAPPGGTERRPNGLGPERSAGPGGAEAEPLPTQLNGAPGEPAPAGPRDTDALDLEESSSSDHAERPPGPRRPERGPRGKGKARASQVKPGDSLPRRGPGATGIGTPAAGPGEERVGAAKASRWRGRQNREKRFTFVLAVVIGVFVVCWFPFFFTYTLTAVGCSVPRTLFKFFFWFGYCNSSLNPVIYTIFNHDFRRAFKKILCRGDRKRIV

[3] = molecular target: T3, Alpha-2C adrenergic receptor (Homo sapiens, UniProt P18825); assay: Binding affinity towards human Alpha-2C adrenergic receptor by the displacement of [3H]rauwolscine
T3 sequence (P18825 whole entry): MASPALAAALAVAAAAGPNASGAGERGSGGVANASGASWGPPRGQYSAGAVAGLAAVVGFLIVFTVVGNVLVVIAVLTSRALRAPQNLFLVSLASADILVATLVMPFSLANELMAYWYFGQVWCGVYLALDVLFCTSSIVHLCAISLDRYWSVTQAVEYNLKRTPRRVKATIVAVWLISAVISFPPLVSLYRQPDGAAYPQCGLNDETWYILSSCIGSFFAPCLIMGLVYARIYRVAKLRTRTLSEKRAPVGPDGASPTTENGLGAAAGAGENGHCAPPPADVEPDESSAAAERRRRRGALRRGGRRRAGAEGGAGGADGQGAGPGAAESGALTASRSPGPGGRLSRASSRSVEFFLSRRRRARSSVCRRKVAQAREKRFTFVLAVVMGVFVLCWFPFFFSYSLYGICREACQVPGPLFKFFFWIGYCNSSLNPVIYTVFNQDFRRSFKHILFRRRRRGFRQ

[4] = molecular target: T3, Alpha-2C adrenergic receptor; assay: Agonistic activity towards human Alpha-2C adrenergic receptor was measured as ability to inhibit forskolin-stimulated synthesis of cyclic adenosine monophosphate; assay type: functional
[5] = molecular target: T4, Alpha-1D adrenergic receptor (Homo sapiens, UniProt P25100); assay: Binding affinity towards human Alpha-1A adrenergic receptor by the displacement of [3H]prazosin
T4 sequence (P25100 whole entry): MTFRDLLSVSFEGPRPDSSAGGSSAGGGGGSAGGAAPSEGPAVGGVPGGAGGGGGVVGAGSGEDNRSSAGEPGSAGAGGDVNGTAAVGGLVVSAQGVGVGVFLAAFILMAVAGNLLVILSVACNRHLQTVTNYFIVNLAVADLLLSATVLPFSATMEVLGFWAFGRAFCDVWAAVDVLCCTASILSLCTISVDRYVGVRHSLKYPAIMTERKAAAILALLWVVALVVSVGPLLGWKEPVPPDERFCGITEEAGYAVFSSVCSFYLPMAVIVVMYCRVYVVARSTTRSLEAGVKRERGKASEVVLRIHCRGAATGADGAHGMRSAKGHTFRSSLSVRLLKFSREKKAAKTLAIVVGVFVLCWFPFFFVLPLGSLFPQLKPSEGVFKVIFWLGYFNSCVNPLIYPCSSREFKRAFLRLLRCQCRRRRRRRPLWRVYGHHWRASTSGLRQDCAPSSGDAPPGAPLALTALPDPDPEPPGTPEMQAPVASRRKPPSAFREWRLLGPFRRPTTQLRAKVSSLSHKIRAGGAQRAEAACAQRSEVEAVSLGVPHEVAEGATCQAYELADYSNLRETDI

[6] = molecular target: T2, Alpha-2A adrenergic receptor; assay: Binding affinity towards human Alpha-2A adrenergic receptor by the displacement of [3H]rauwolscine
[7] = molecular target: T5, Alpha-1A adrenergic receptor (Homo sapiens, UniProt P35348); assay: Binding affinity towards human Alpha-1C adrenergic receptor by the displacement of [3H]prazosin
T5 sequence (P35348 whole entry): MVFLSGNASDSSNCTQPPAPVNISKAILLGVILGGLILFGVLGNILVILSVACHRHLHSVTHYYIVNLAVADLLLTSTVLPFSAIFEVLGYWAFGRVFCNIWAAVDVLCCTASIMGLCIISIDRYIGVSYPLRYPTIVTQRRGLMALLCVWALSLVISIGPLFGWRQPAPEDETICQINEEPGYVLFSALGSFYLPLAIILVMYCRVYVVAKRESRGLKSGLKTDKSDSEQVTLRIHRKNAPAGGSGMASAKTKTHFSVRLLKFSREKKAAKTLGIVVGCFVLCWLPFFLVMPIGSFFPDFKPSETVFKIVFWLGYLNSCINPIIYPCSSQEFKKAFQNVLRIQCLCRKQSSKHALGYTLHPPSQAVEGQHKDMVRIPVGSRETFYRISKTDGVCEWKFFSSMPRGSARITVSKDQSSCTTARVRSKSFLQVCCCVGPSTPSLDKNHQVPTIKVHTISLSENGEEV

[8] = molecular target: T1, Alpha-2B adrenergic receptor; assay: Binding affinity towards human Alpha-2B adrenergic receptor by the displacement of [3H]rauwolscine

For C1CCCC(NC2=NCCO2)CC1, the EC50 [1] was 214 nM, the EC50 [2] was 38 nM and the Ki [3] was 33.1 nM. It also gave an EC50 [4] of 77.6 nM, a Ki [5] of 3800 nM and a Ki [6] of 5.37 nM. The Ki [7] was 2000 nM and the Ki [8] was 9.77 nM.
For c1ccc2c(c1)CCCC2NC1=NCCCO1 (stereo not given), the EC50 [1] was 34.7 nM, the EC50 [2] was 229 nM and the Ki [3] was 85.1 nM. For the same compound, the EC50 [4] was 24.5 nM, the Ki [5] was 2190 nM and the Ki [6] was 25.7 nM. It also gave a Ki [7] of 1950 nM and a Ki [8] of 25.1 nM.
Compound CCC[C@H]1CCCCC1NC1=NCCO1 (stereo not given in full) has an EC50 [1] of 9.33 nM, an EC50 [2] of 1.62 nM and a Ki [3] of 24.5 nM. It also gave an EC50 [4] of 4.07 nM, a Ki [5] of 562 nM and a Ki [6] of 2.95 nM. The Ki [7] was 141 nM and the Ki [8] was 5.89 nM.
Compound c1ccc2c(c1)CCCC2NC1=NCCO1 (stereo not given) has an EC50 [1] of 3.55 nM, an EC50 [2] of 1.17 nM and a Ki [3] of 12 nM. It also gave an EC50 [4] of 2.19 nM, a Ki [5] of 204 nM and a Ki [6] of 2.34 nM. For the same compound, the Ki [7] was 126 nM and the Ki [8] was 2.14 nM.
C1COC(N2CCOCC2)=N1 was tested, and the Ki [3] was 16600 nM, the Ki [5] was 120000 nM and the Ki [6] was 16600 nM. It also gave a Ki [7] of 107000 nM and a Ki [8] of 11700 nM.
C1COC(NC(C2CC2)C2CC2)=N1 [RILMENIDINE] showed an EC50 [1] of 724 nM, an EC50 [2] of 275 nM and a Ki [3] of 288 nM. For the same compound, the EC50 [4] was 191 nM, the Ki [5] was 8910 nM and the Ki [6] was 182 nM. The Ki [7] was 6030 nM and the Ki [8] was 70.8 nM.
